Test results from US20090263489A1, “ANALGESIC AND ANTI-INFLAMMATORY COMPOSITIONS AND METHODS FOR REDUCING, PREVENTING OR TREATING PAIN AND INFLAMMATION” (Warsaw Orthopedic, Inc., priority 2008, published 2009).
“Also recorded” adds a separate entry of the source. Structures can show the parent of a compound that is named as a salt.

What was measured:
[1] = system: chronic constriction injury (CCI) rats; assay: Thermal paw withdrawal latency (Hargreaves test) in chronic constriction injury model; assay type: in vivo, Wistar rats; details: days 7 and 14, vs control (PBS)
Description: (§1) The behavioral animal model of chronic constriction injury (“CCI”) was chosen to evaluate the efficacy of an analgesic and anti-inflammatory agent as a pain and inflammation treatment. This model may mimic pain associated with sciatica in humans.
(§2) Fifty-Six male Wistar rats (Charles River Laboratories, Wilmington, Mass.) weighing 300±26 g the day of surgery (Day 1) were used in this study. All experiments were conducted in accordance with the International Association for the Study of Pain guidelines and approved by the Institutional Animal Care and Use Committee at SRI International, Inc (Menlo Park, Calif.). CCI was induced according to the method of Bennett and Xie. Briefly, each animal was anesthetized by intraperitoneal (IP) injection of sodium pentobarbital at a dose of 60 mg/kg. The animal's common sciatic nerve was exposed and freed from adherent tissue at mid-thigh by separating the biceps femoris muscles by blunt dissection. Four loose ligatures were placed 1 mm apart, using chromic gut suture (4-0 absorbable suture; Jorgensen Laboratories, Inc., Loveland, Colo.).
(§3) Seven animals were randomly assigned to each treatment group.
Withdrawal latencies to a noxious thermal stimulus were measured according to the Hargreaves test using a plantar analgesia instrument (Stoelting, Wood Dale, Ill.) on Days −2, 7, and 14 (see FIG. 3). The radiant infrared heat source stimulus intensity was set to IR50 and the cut-off time was set at 15 seconds. Rats were placed on a glass platform and allowed to habituate to the testing chambers for a minimum of 15 minutes prior to each testing session. The thermal stimulus was applied to the plantar surface of the paw. Thermal thresholds were defined as the latency in seconds at the first pain behavior, which includes paw withdrawal, flinching, biting and/or licking of the stimulated paw. The readings for all animals were averaged and the mean and standard error of the mean (SEM) were determined for each treatment group.

[2] = system: chronic constriction injury (CCI) rats; assay: Mechanical allodynia (von Frey monofilaments, 50% paw withdrawal threshold) in chronic constriction injury model; assay type: in vivo, Wistar rats; details: days 8 and 15, vs control (PBS)
Description: as §1, §2, §3
Mechanical allodynia was measured using von Frey monofilaments (Stoelting, Wood Dale, Ill.) with varying stiffness (2.0-15.0 g) on Days −1, 8, and 15 as described previously (see FIG. 4). Animals were placed on a perforated metallic platform and allowed to habituate to their surroundings for a minimum of 15 minutes before testing. The 50% paw withdrawal threshold response was determined by a sequential increasing and/or decreasing of the stimulus strength (the “up-down method” of Dixon). Each filament was applied with enough pressure to cause a buckling effect. Absence of a paw lifting/withdrawal response after 5 seconds prompted the use of the filament of next higher weight. Paw withdrawal indicating a positive response prompted the use of a weaker filament. After the initial response (i.e., paw withdrawal), the testing continued for four additional measurements and was used to calculate the response threshold. Four consecutive positive responses received a score of 0.25 g, and five consecutive negative responses (i.e., no paw withdrawal) received a score of 15 g. The 50% paw withdrawal threshold was calculated using the formula: 10(Xf+kd)/10,000, where Xf is the final von Frey filament used (log units), k is a value that analyzes the response pattern (taken from the table published by Chaplan et al.), and d is the mean difference between stimuli (log units). The mean and standard error of the mean (SEM) were determined for each treatment group.

[3] = Solubility noted for preparing the formulations
[4] = 2 mg/kg/day IP daily, listed as sulindac

For `CC1=C(CC(=O)O)c2cc(F)ccc2C1=Cc1ccc([S+](C)[O-])cc1` (centres unmarked) [Sulindac, 2-[6-fluoro-2-methyl-3-[(4-methylsulfinylphenyl)-methylidene]inden-1-yl]-acetic acid], the “thermal paw withdrawal latency: reducing pain and/or inflammation” value ([1]; 2 mg/kg/day IP daily) was “particularly effective at reducing pain and/or inflammation”, the “thermal paw withdrawal latency: reducing pain and/or inflammation” value [1, 4] was “effective at reducing pain and/or inflammation for 14 days” and the “mechanical thresholds (von Frey): reducing pain and/or inflammation” value ([2]; 2 mg/kg/day IP daily) was “particularly effective at reducing pain and/or inflammation”. The “mechanical thresholds (von Frey): reducing pain and/or inflammation” value [2, 4] was “effective at reducing pain and/or inflammation for 15 days”.

In the case of `CC[C@H](C)C(=O)O[C@H]1C[C@@H](C)C=C2C=C[C@H](C)[C@H](CC[C@@H]3C[C@@H](O)CC(=O)O3)[C@H]21` [Lovastatin, lovastatin], the “thermal paw withdrawal latency: reducing pain and/or inflammation” value ([1]; 0.3 mg/kg/day IP daily) is reported as “effective at reducing pain and/or inflammation for 14 days”, the “thermal paw withdrawal latency: reducing pain and/or inflammation” value ([1]; 3 mg/kg/day IP daily) is reported as “effective at reducing pain and/or inflammation for 14 days; also recorded: particularly effective at reducing pain and/or inflammation” and the “Soluble in DMSO” value ([3]; DMSO) is reported as “up to 40 mg/kg”. The “mechanical thresholds (von Frey): reducing pain and/or inflammation” value ([2]; 0.3 mg/kg/day IP daily) was “effective at reducing pain and/or inflammation for 15 days”, the “mechanical thresholds (von Frey): reducing pain and/or inflammation” value ([2]; 3 mg/kg/day IP daily) was “effective at reducing pain and/or inflammation for 15 days” and the “mechanical thresholds (von Frey): reducing pain and/or inflammation” value ([2]; 3 mg/kg/day IP daily, listed as lovastatin) was “particularly effective at reducing pain and/or inflammation”.

In the case of `COc1cccc([C@]2(O)CCCC[C@H]2CN(C)C)c1` (racemic) [Tramadol, (±)cis-2-[(dimethylamino)methyl]-1-(3-methoxyphenyl)cyclohexanol hydrochloride], the solubility ([3]; saline, saline or isotonic) is reported as no less than 25 mg/mL.

In the case of `N=C(N)NCCSSCCNC(=N)N` [GED, guanidinoethyldisulfide], the “thermal paw withdrawal latency: reducing pain and/or inflammation” value ([1]; 1 mg/kg/day IP daily) is reported as “effective at reducing pain and/or inflammation for 14 days”, the “thermal paw withdrawal latency: reducing pain and/or inflammation” value ([1]; 3 mg/kg/day IP daily) is reported as “effective at reducing pain and/or inflammation for 14 days; also recorded: particularly effective at reducing pain and/or inflammation” and the “solubility in organic solvents” value ([3]; printed 'irganic solvents') is reported as “insoluble”. The solubility ([3]; water) was no more than 5 mg/mL, the “mechanical thresholds (von Frey): reducing pain and/or inflammation” value ([2]; 1 mg/kg/day IP daily) was “effective at reducing pain and/or inflammation for 15 days; also recorded: particularly effective at reducing pain and/or inflammation” and the “mechanical thresholds (von Frey): reducing pain and/or inflammation” value ([2]; 3 mg/kg/day IP daily) was “effective at reducing pain and/or inflammation for 15 days”.
